Laboratory results taken from US6673348B2, “Heat shock protein-based vaccines and immunotherapies” (priority 1995, dated 2004).
No end group written: not given here.

Tests used:
[1] = test system: Ova-peptide pulsed EL4 cells; experiment: Cytotoxicity of spleen cells from vaccinated mice, 18-hour chromium release assay; type: in vivo, C57BL/6 mice; conditions: mice immunized with the single component alone
Description: The purified hsp70 was combined with the synthesized peptides and used for immunization. To form the hsp70/peptide mixtures, approximately 15 μg (21.5 μM) hsp70 was combined with 5 μg of ova-peptide (0.5 mM, SEQ. ID. NO: 7) or 10 μg (0.5 mM) hybrid peptide (SEQ. ID NOS: 8 and 9) were mixed on ice to a final volume of 10 μl in Buffer B (final concentration: 20 mM Hepes pH 7.0, 150 mM KCl, 10 mM (NH4)2SO4, 2 mM MgCl2 and 2 mM MgADP, pH 7.0). The mixtures were incubated for 30 minutes at 37° C. and then used for in vivo immunizations.
C57BL/6 mice were immunized intradermally once a week for a total of two weeks with 10 μL of one of the mixtures described above or with a mixture of TITERMAX® (Vaxcell, Norcross, Ga.) and Ova-peptide (5 μg). One week after the second immunization, spleen cells were removed and mononuclear cells (6-8×10^7) were cultured with 3×10^6 γ-irradiated (3000 rad) stimulator cells. The stimulator cells were obtained from naive mice that had been sensitized in vitro with Ova-peptide (10 mg/ml) for 30 minutes at room temperature, washed and irradiated at 3000 rads.
Cytotoxicity of spleen cells from vaccinated mice were assayed on Ova-peptide pulsed EL4 cells in an 18-hour chromium release assay. CTL were generated by culturing in vivo immunized spleen cells for 5 days at a concentration of 10^6 cells/mL in RPMI medium, 10% FCS, penicillin, streptomycin and 2 mM L-glutamine, together with 3×10^6 γ-irradiated (3,000 rad) stimulator cells/mL. Target cells were prepared by culturing cells for 1 hour in the presence of 250 μCi of ^51Cr sodium chromate (DuPont, Boston, Mass.) in Tris-phosphate buffer, pH 7.4 at 37° C. for 60 minutes. After washing, 10^4 ^51Cr-labeled target cells were mixed with effector lymphocytes to yield several different effector/target (E/T) ratios and were incubated for 18 hours. Supernatants were harvested and the radio-activity was measured in a gamma counter. Percent specific lysis was calculated as: 100×[(cpm release by CTL-cpm spontaneous release)/(cpm maximal release—cpm spontaneous release)]. Maximal response was determined by addition of 1% Triton X-100. Spontaneous release of all target in the absence of effector cells was less than 25% of the maximal release.

hsp70 = biological target: T1, hsp70 (Mus musculus, UniProt P17879); experiment: Binding of 14C-labeled OVA-BiP to heat shock protein, co-elution on Sephacryl S-300 column; conditions: 100 μM 14C-labeled peptide, 50 μg hsp70, 37° C., 30 minutes
T1 construct: made in house; host or cells: E. coli DH5α, plasmid pMS236
Description: Purified mouse cytosolic hsp70 was prepared from E. coli DH5α cells transformed with pMS236 encoding mouse cytosolic hsp70. The cells were grown to an optical density (600 nm) of 0.6 at 37° C., and expression was induced by the addition of IPTG to a final concentration of 1 mM. Cells were harvested by centrifugation 2 to 5 hours post induction and the pellets were resuspended to 20 mL with Buffer A (20 mM Hepes pH 7.0, 25 mM KCl, 1 mM DTT, 10 mM (NH4)2SO4, 1 mM PMSF). The cells were lysed by passing three times through a French press. The lysate was cleared by a low speed spin, followed by centrifugation at 100,000×G for 30 minutes. The cleared lysate was applied to a Pharmacia XK26 column packed with 100 mL DEAE Sephacel and equilibrated with Buffer A at a flow rate of 0.6 cm/min. The column was washed to stable baseline with Buffer A and eluted with Buffer A adjusted to 175 mM KCl. […]
The ability of the OVA-BiP peptide to bind to heat shock proteins was measured by incubating 100 μM (5μg) ^14C-labeled OVA-BiP with 50 μg of BiP (prepared as in example 11), hsp70 (as prepared in Example 2) or grp96 (prepared as in Example 10) in a final volume of 20 μl of buffer (50 mM Mops, pH 7.2., […] NaCl, 5 mM MgAcetate) at 37° C. for 30 minutes. […] 50 μl of each ˜225 μl fraction was counted in scintillation liquid. […]

BiP [2] = biological target: T2, BiP (Mus musculus, UniProt P20029); experiment: as above; conditions: 100 μM 14C-labeled peptide, 50 μg BiP, 37° C., 30 minutes
T2 construct: mature wild-type or KDEL-deleted BiP can be harvested from the periplasm; extra Met (initiator ATG of the 5' primer, ahead of the mature N-terminus) (N); made in house; host or cells: E. coli BL21, pET22, periplasmic extract
Description: ^14C-labeled OVA-BiP was prepared by alkylation of OVA-BiP with ^14C-formaldehyde. 0.9 mg of OVA-BiP in 300 uL 10% DMSO/water was added to 175 μl of ^14C-formaldehyde (62 μCi) and immediately 50 uL of freshly made up 200 mM NaCNBH3 was added. The reaction was mixed and left at 25° C. for 3 hours. The labeled peptide was repurified by reverse phase HPLC on a C-4 column in a 15 minute 0-100% acetonitrile (0.1% TFA) gradient.
The ability of the OVA-BiP peptide to bind to heat shock proteins was measured by incubating 100 μM (5μg) ^14C-labeled OVA-BiP with 50 μg of BiP (prepared as in example 11), hsp70 (as prepared in Example 2) or grp96 (prepared as in Example 10) in a final volume of 20 μl of buffer (50 mM Mops, pH 7.2., […] NaCl, 5 mM MgAcetate) at 37° C. for 30 minutes. The samples were then spun down (5 minutes in a microfuge) and loaded onto a 17 cm long Sephacryl S-300 column equilibrated in binding buffer (50 mM Mops, pH 7.2., 200 mM NaCl, 5 mM MgAcetate) and fractions were collected dropwise. 50 μl of each ˜225 μl fraction was counted in scintillation liquid. 10 μl of each fraction was also run on a 12% SDS-PAGE reducing gel. […] The result for gp96 is unclear because the peak at fraction 11 (which may represent an aggregation phenomenon) and the gp96 peak (fraction 14) elute close together on the column used.

BiP [3] = biological target: T2, BiP; experiment: ATP-mediated peptide release, elution profile of 125I-OVA-BiP and BiP; type: binding; conditions: presence and absence of 2 mM ATP
Description: To prepare ^125I-OVA-BiP, 250 μCi of monoiodinated Bolton-Hunter reagent was transferred into a stoppered vial and the solvent in which it was dissolved was evaporated with a gentle stream of argon gas. To the dried reagent 222 μL of 4.5 mg/mL OVA-BiP in 100 mM NaBO3, pH 8, […], 10% DMSO was added. The reaction was mixed and incubated at 25° C. for 45 minutes and continued at 4° C. for a further hour. The labeled peptide was repurified by reverse phase HPLC on a C-4 column in a 20 minute, 0-100% acetonitrile (0.1% TFA) gradient. The iodinated OVA-BiP was combined with BiP in substantially the same manner as the heat shock proteins in Example 7, except that since the iodinated peptide was at a very low concentration, 1 μl (approx 32 ng) of labeled peptide was mixed with 5 μg of unlabeled peptide and this was incubated with 50 μg of BiP in 20 μL of binding buffer. To observe ATP-mediated peptide release, ATP was added to a final concentration of 2 mM after the 30 minute incubation and incubated for a further 5 minutes prior to spinning. These samples were run on the same column as above, but equilibrated in binding buffer supplemented with 2 mM ATP. […] This is consistent with the observation that ATP mediates release of bound proteins or polypeptides from heat shock proteins.

T2 sequence (P20029 20-655): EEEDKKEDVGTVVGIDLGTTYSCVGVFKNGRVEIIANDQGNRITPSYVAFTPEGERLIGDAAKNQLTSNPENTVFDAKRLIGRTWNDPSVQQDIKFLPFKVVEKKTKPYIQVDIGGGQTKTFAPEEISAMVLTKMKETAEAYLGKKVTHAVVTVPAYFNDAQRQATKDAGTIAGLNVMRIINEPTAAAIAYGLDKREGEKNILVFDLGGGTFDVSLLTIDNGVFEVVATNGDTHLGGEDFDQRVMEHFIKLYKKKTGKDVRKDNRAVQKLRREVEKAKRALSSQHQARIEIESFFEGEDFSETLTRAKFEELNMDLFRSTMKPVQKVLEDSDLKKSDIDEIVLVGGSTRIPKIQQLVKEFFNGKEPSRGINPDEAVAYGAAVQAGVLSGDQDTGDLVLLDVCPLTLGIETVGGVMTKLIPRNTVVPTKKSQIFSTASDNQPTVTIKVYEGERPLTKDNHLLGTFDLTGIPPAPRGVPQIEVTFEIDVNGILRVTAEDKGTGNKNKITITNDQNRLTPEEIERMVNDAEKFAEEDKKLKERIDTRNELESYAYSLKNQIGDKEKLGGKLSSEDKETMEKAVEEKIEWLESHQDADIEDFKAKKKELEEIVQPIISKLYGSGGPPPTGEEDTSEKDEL
T1 sequence (P17879 whole entry): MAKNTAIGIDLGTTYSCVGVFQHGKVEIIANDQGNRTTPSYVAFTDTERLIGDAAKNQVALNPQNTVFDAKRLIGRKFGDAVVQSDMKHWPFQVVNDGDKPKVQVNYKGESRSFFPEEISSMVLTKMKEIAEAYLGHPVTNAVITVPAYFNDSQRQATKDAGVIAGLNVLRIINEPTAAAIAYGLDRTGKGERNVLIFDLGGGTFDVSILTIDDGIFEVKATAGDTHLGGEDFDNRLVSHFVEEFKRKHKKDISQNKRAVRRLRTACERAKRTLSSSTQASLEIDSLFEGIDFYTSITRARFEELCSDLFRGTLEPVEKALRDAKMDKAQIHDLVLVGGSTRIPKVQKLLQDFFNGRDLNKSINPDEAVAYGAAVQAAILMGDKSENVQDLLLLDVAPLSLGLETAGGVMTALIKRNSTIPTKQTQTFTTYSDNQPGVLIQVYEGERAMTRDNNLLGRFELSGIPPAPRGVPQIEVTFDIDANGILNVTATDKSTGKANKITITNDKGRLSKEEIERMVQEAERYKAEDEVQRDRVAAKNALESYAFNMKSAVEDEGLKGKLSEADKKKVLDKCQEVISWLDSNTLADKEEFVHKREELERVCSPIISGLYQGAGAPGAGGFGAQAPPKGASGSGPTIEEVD

release of hybrid peptide from BiP on addition of ATP (FIG. 7) (BiP [3]) | Substance | results on cells pulsed with Ova-peptide (FIG. 5A) versus cells not pulsed (FIG. 5B) [1] | radio-activity co-eluting with heat shock protein (FIG. 6) (hsp70) | radio-activity co-eluting with heat shock protein (FIG. 6) (BiP [2])
– | HWDFAWPWGSGSIINFEKL [BiP-OVA] | the same | – | –
– | SIINFEKLGSGHWDFAWPW [OVA-BiP] | the same | significant amount of radio-activity elutes with BiP and hsp70 | significant amount of radio-activity elutes with BiP
– | Ser-Ile-Ile-Asn-Phe-Glu-Lys-Leu (SIINFEKL) [Ova-peptide, OVA antigenic domain peptide, reference compound] | the same | – | –
addition of ATP causes the release | ^125I-OVA-BiP: OVA-BiP labeled with monoiodinated Bolton-Hunter reagent (SIINFEKLGSGHWDFAWPW; also: labelled with monoiodinated (125I) Bolton-Hunter reagent, place not given here) | – | – | –
– | hsp70: purified recombinant mouse cytosolic hsp70 from E. coli DH5α transformed with pMS236 | the same | – | –
